{
  "source": "patent US9428465B2",
  "about": "“Acid ceramidase inhibitors and their use as medicaments” (FONDAZIONE ISTITUTO ITALIANO DI TECHNOLOGIA, priority 2012, dated 2016)",
  "key": {"[1]": {"biological_target": "rat acid ceramidase (rAC) (Rattus norvegicus (Rat), UniProt Q6P7S1)", "sequence (Q6P7S1 142-394)": "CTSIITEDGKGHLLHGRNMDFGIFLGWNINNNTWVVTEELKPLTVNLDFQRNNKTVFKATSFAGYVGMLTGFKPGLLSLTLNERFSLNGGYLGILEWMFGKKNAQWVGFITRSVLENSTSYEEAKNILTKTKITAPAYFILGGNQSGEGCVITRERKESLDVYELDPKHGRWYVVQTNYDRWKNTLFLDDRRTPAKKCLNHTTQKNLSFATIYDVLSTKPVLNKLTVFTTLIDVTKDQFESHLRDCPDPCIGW", "sequence (Q6P7S1 21-141)": "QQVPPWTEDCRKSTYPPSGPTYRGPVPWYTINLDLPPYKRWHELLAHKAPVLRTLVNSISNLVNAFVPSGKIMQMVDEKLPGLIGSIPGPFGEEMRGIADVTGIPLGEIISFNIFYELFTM", "assay": "Rat acid ceramidase (rAC) enzymatic assay, LC/MS of lauric acid", "assay_type": "biochemical", "details": "rat acid ceramidase, 100 μM N-lauroyl ceramide, pH 4.5", "procedure": "A lysosomal rat acid ceramidase (rAC) protein preparation was obtained from cells stably expressing rAC resuspended in 20 mM Tris HCl (pH 7.5) with 0.32 M sucrose. Samples were sonicated and centrifuged at 800×g for 15 min at 4° C. Supernatants were then centrifuged at 12,000×g for 30 min at 4° C. Pellets were re-suspended in PBS pH 7.4 and subjected to 2 freeze-thaw cycles at −80° C. The suspension was finally centrifuged at 105,000×g for 1 hr at 4° C. and the supernatant containing rAC was then used in the enzymatic assay.\nr-AC protein samples were pre-incubated with various concentrations of test compounds or vehicle control in 100 mM NaH2PO4/citrate buffer pH 4.5, 0.1% Nonidet P-40, 3 mM DTT for 30 min at 37° C. Samples were incubated with 100 μM N-lauroyl ceramide (Nu-Chek Prep, Elysian, Minn.) at 37° for 30 min. The reaction was stopped by addition of a mixture of chloroform/methanol (2:1 vol/vol) containing 1 nmol of heptadecanoic acid (HDA; NuChek Prep). The organic phases were collected, dried under nitrogen, and analyzed by LC/MS in the negative-ion mode using heptadecanoic acid (HDA) as internal standard (m/z=199 for lauric acid, m/z=269 for HDA). HDA was eluted on an XDB Eclipse C18 column isocratically at 2.2 mL/min for 1 min with a solvent mixture of 95% methanol and 5% water, both containing 0.25% acetic acid, and 5 mM ammonium acetate. The column temperature was 50° C. Electrospray ionization (ESI) was in the negative mode, capillary voltage was 4 kV, and fragmentor voltage was 100 V. Nitrogen was used as drying gas at a flow rate of 13 L/min and at a temperature of 350° C. Nebulizer pressure was set at 60 psi. We monitored [M-H]− in the selected-ion monitoring (SIM) mode using HDA as internal standard.\nInhibition of rAC activity was calculated as a reduction of lauric acid in the samples compared to vehicle controls. Median inhibitory concentration (IC50) values were calculated by non-linear regression analysis of log [concentration]/inhibition curves using. GraphPad Prism 5 (GraphPad Software, Inc., CA, USA) applying a standard slope curve fitting."}, "[2]": {"test_system": "human colon adenocarcinoma cell line SW403", "assay": "Ceramide levels in SW403 cells (lipid extraction, LC/MS)", "assay_type": "cell-based", "details": "3 μM, 3 hrs, vs. vehicle", "procedure": "Lipids were extracted using a chloroform/methanol mixture (2:1 vol/vol, 3 mL) containing internal standards. The organic phases were collected, dried under nitrogen, and dissolved in methanol/chloroform (3:1 vol/vol) for LC/MS analyses.\nCeramides were analyzed by LC/MS^n, using a 1100-LC system (Agilent Technologies) equipped with an Ion Trap XCT and interfaced with ESI (Agilent Technologies). They were separated on a Poroshell 300 SB C18 column (2.1×75 mm i.d., 5 μm; Agilent Technologies) maintained at 30° C. A linear gradient of methanol in water containing 5 mM ammonium acetate and 0.25% acetic acid (from 80% to 100% of methanol in 3 man) was applied at a flow rate of 1 mL/min. […]\nTissue-derived ceramides were identified by comparison of their LC retention times and MS^n fragmentation patterns with those of authentic standards (Avanti Polar Lipids). Extracted ion chromatograms were used to quantify myristoyl ceramide (C140, m/z 510.5>492.5>264.3), palmitoyl ceramide (C16:0, m/z 538.5>520.3>264.3), stearoyl ceramide (C18:0 m/z 566.5>548.3>264.3), lignoceroylceramide (C24:0 m/z 650.5>632.3>264.3), nervonoylceramide (C24:1 m/z 648.5>630.3>264.3) and using lauroyl ceramide standard (m/z 482.5>464.5>264.3). […]"}, "SW403 cells [3]": {"test_system": "SW403 cells", "assay": "SW403 cell viability, trypan blue assay", "assay_type": "cell-based, human", "details": "prolonged (72 hrs) treatment, concentration-response, FIGS. 2A and 2B", "procedure": "(§1) Cells were seeded in 12- or 96-well plates in complete medium 24 hrs before treatment and then incubated for 24 hrs (single treatment) or 72 hrs (multiple treatments) with different drug concentrations in media without serum. Cell viability was then evaluated.\nThe trypan blue exclusion assay is based on the principle that viable cells have intact cell membrane and can therefore exclude the trypan blue dye. Cell viability was measured after 24 hrs incubation with the drug. Cells were harvested, centrifuged at 1200 rpm for 10 min and pellets re-suspended in PBS. To evaluate viability, cells were diluted 1:1 with 0.4% trypan blue dye (Sigma), incubated for 1 min and white (viable) cells were counted with a hemacytometer."}, "SW403 cells [4]": {"test_system": "SW403 cells", "assay": "SW403 cell viability, MTT assay", "assay_type": "cell-based, human", "procedure": "as §1\nAlternatively, cell viability was assessed measuring mitochondrial functionality by the MIT assay, which is based on the reduction of the soluble tetrazolium salt MTT [(3-(4,5-dimethylthiazol-2-yl)-2,5-diphenyltetrazolium bromide] into insoluble formazan by mitochondria. Briefly, after treatment, cells were washed with PBS and incubated with 0.5 mg/ml, MTT for 2 hrs at room temperature, MTT reduction was quantified by absorbance at 570 nm using a UV-visible plate reader."}, "SW403 cells [5]": {"test_system": "SW403 cells", "assay": "Isobolographic analysis of combined treatment of SW403 cells (ED50, trypan blue assay)", "assay_type": "cell-based, human", "procedure": "Interaction between drugs was assessed by isobolographic analysis, based on the concept of dose-equivalence which follows from the dose effect curves of the individual drugs (Tallarida R I, Interactions between drugs and occupied receptors. Pharmacol. Ther. 2007, 113, 197-209; Tallarida R J, Raffa R B, The application of drug dose equivalence in the quantitative analysis of receptor occupation and drug combinations. Pharmacol. Ther. 2010; 127, 165-174). Specifically, the individual drugs' potency and efficacy allow calculating the expected effect of a combination of the two drugs.\nIn the experiment of combined treatment, isobolograms were constructed by plotting on vertical and horizontal axes the ED50 data of the single drugs measured by trypan blue assay after subcronic treatment for 72 hrs. The straight line with axial intercepts represents the isobole of additivity and allows calculating the theoretical additive dose. Synergism is indicated by an observed pair (x, y) that plots below the isobole for the specified effect, whereas sub-additivity is indicated when an observed pair (x, y) plots above the isobole."}, "[6]": {"details": "SW403 cells, 72 hrs, isobole of additivity, higher than the experimental values"}},
  "data": [
    {"smiles": "CCCCCCNC(=O)n1cc(C(F)(F)F)c(=O)[nH]c1=O", "note": "[Example 4, N-hexyl-2,4-dioxo-5-(trifluoromethyl)pyrimidine-1-carboxamide]", "values": [
      {"measurement": "IC50", "setting": "[1]", "value": 0.01, "unit": "µM"},
      {"measurement": "levels of C14:0, C16:0 and C18:0 ceramide", "setting": "[2]", "value": "increased"},
      {"measurement": "SW403 cell viability (trypan blue assay)", "setting": "SW403 cells [3]", "value": "reduction of the viability"},
      {"measurement": "interaction with 5FU in reducing cell viability (MTT assay)", "setting": "SW403 cells [4]; 72 hrs, compound 30 μM + 5FU 300 nM", "value": "synergistic effect"},
      {"measurement": "SW403 cell viability (MTT assay)", "setting": "SW403 cells [4]; sub-chronic treatment 72 hrs, compounds 30 μM, 5FU 300 nM", "value": "reduced cell viability"},
      {"measurement": "theoretical dose (Th) to be used with 20 nM taxol to obtain an additive effect", "setting": "SW403 cells [5]; [6]", "value": 4.9, "unit": "µM"},
      {"measurement": "theoretical dose (Th) to be used with 300 nM 5FU to obtain an additive effect", "setting": "SW403 cells [5]; [6]", "value": 7.8, "unit": "µM"},
      {"measurement": "interaction with taxol in reducing viability of SW403 cells (isobologram)", "setting": "SW403 cells [5]; prolonged treatment, 20 nM taxol, trypan blue ED50", "value": "synergistic effect"},
      {"measurement": "interaction with 5-fluorouracil in reducing viability of SW403 cells (isobologram)", "setting": "SW403 cells [5]; prolonged treatment, 300 nM 5FU, trypan blue ED50", "value": "synergistic effect"}
    ]}
  ]
}
